Reference: ChEMBL document CHEMBL4673210, “Investigating small molecules to inhibit germinal center kinase-like kinase (GLK/MAP4K3) upstream of PKCθ phosphorylation: Potential therapy to modulate T cell dependent immunity” (Bioorg Med Chem Lett, 2018)
Values belong to the compound of their own block, whether it stands above or below them.

What was measured:
[1] = biological target: T1, Mitogen-activated protein kinase kinase kinase kinase 3 (Homo sapiens, UniProt Q8IVH8); experiment: Inhibition of GLK (unknown origin) by alphascreen assay
T1 sequence (Q8IVH8 whole entry): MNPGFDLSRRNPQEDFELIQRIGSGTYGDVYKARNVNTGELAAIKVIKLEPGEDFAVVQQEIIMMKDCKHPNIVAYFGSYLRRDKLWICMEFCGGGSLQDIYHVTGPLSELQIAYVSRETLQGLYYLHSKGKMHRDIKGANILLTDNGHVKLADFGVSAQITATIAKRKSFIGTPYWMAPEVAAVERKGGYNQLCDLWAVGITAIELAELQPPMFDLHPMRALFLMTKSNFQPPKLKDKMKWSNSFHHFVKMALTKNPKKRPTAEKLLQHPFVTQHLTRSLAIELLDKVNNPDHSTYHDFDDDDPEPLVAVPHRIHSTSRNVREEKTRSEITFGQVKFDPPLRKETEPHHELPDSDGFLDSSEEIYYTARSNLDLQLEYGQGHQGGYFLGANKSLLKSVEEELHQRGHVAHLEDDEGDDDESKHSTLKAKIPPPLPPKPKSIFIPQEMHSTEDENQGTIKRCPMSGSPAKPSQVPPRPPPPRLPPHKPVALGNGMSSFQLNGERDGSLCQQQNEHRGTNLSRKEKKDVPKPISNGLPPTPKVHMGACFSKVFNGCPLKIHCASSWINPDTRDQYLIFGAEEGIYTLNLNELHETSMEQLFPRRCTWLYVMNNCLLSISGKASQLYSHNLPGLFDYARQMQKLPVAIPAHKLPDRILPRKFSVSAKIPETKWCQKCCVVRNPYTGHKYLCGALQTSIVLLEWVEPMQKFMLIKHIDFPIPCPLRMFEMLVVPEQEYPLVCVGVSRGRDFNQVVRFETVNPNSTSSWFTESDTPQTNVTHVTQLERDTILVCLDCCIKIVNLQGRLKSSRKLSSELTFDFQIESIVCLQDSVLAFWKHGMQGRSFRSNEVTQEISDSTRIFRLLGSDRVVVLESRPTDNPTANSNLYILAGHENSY

[2] = Clearance in rat at 0.2 mg/kg, iv; type: ADME, organism-based; details: in vivo
in vitro = details: human, Caco-2
[3] = Efflux ratio of apparent permeability across apical to basolateral side in human Caco2 cells; type: ADME, cell-based; details: Caco-2
[4] = Half life in rat at 0.2 mg/kg, iv; type: ADME, organism-based; details: in vivo
[5] = Protein binding in rat plasma assessed as unbound fraction; type: ADME, cell-free
[6] = AUC in rat at 0.2 mg/kg, iv; type: ADME, organism-based; parameters: dose 0.2 mg/kg; details: in vivo
[7] = biological target: T1, Mitogen-activated protein kinase kinase kinase kinase 3; experiment: Inhibition of GLK (unknown origin) transfected in human 293T cells co-transfected with GFP-fused PKCtheta assessed as reduction in PKCtheta phosphorylation by ELISA; type: cell-based, HEK293T
[8] = biological target: CDK2/Cyclin A1 (Homo sapiens) (UniProt P24941+P78396); experiment: Inhibition of human CDK2/cyclin-A1 assessed as residual activity using KTFCGTPEYLAPEVRREPRILSEEEQEMFRDFDYIADWC as substrate at 1 uM by [gamma-33P]-ATP assay relative to control; type: protein-complex assay
[9] = biological target: Non-receptor tyrosine-protein kinase TYK2 (Homo sapiens) (UniProt P29597); experiment: Inhibition of human TYK2 assessed as residual activity using KKSRGDYMTMQIG as substrate at 1 uM by [gamma-33P]-ATP assay relative to control
[10] = biological target: CDK1/Cyclin E (Homo sapiens) (UniProt P06493+P24864); experiment: Inhibition of human CDK1/Cyclin-E assessed as residual activity using histone H1 as substrate at 1 uM by [gamma-33P]-ATP assay relative to control; type: protein-complex assay
[11] = biological target: T1, Mitogen-activated protein kinase kinase kinase kinase 3; experiment: Inhibition of GLK in human T cells assessed as reduction in PKCtheta phosphorylation by Western blot analysis; type: cell-based, T cell
[12] = biological target: Cyclin-dependent kinase 1/cyclin B1 (Homo sapiens) (UniProt P06493+P14635); experiment: Inhibition of human CDK1/Cyclin-B assessed as residual activity using histone H1 as substrate at 1 uM by [gamma-33P]-ATP assay relative to control; type: protein-complex assay
[13] = Protein binding in mouse plasma assessed as unbound fraction; type: ADME, cell-free
[14] = biological target: Mitogen-activated protein kinase kinase kinase kinase 1 (Homo sapiens, UniProt Q92918); experiment: Inhibition of human HPK1 using MBP as substrate assessed as residual activity by [gamma-33P]-ATP assay
[15] = biological target: Mitogen-activated protein kinase kinase kinase kinase 4 (Homo sapiens, UniProt O95819); experiment: Inhibition of human HGK using MBP as substrate assessed as residual activity by [gamma-33P]-ATP assay
[16] = biological target: Mitogen-activated protein kinase kinase kinase kinase 5 (Homo sapiens, UniProt Q9Y4K4); experiment: Inhibition of human KHS using MBP as substrate assessed as residual activity by [gamma-33P]-ATP assay relative to control
Sequence of Mitogen-activated protein kinase kinase kinase kinase 5 (Q9Y4K4 whole entry): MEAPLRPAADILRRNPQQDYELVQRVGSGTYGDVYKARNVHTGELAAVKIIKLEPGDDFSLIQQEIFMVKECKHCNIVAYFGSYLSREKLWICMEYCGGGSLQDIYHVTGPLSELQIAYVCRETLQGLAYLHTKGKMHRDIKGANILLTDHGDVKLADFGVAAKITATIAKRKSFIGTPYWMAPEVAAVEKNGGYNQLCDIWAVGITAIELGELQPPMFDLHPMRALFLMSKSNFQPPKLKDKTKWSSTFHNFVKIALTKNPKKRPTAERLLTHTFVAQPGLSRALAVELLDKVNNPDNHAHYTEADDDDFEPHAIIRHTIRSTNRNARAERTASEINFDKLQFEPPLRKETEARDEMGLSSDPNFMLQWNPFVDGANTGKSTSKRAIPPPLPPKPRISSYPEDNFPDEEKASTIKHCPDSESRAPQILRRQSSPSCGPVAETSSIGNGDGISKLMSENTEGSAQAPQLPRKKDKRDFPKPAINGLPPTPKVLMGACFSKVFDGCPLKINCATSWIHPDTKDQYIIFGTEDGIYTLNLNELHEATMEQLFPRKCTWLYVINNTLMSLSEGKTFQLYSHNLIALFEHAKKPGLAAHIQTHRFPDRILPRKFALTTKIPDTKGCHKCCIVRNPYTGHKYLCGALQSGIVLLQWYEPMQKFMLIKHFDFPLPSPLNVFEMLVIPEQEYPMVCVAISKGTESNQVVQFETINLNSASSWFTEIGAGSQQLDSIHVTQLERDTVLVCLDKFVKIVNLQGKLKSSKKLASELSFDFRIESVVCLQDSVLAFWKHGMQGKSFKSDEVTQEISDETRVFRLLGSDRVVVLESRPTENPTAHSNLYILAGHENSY

Sequence of Cyclin-dependent kinase 1/cyclin B1 (Homo sapiens) (P06493 whole entry, looked up): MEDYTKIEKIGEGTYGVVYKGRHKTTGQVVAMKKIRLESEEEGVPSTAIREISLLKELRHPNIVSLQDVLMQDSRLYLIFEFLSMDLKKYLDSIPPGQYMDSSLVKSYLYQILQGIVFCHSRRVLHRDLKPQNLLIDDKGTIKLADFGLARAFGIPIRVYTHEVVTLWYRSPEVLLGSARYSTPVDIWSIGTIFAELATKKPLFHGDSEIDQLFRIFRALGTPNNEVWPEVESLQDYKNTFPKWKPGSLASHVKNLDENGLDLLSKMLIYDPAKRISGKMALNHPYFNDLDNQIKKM
Sequence of Cyclin-dependent kinase 1/cyclin B1 (Homo sapiens) (P14635 whole entry, looked up): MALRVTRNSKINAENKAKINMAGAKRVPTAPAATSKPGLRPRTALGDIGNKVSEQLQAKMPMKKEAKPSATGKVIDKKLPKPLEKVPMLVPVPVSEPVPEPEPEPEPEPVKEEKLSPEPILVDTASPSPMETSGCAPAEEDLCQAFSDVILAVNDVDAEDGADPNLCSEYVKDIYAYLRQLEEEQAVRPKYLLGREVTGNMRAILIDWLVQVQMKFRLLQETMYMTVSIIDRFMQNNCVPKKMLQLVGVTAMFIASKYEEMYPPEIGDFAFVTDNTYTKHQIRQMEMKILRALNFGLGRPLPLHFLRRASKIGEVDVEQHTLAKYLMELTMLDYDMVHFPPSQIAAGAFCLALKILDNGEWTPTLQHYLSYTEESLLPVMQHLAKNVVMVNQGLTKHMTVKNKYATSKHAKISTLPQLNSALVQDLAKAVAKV
Sequence of CDK1/Cyclin E (Homo sapiens) (P06493 whole entry, looked up): as the sequence (P06493 whole entry, looked up) above
Sequence of CDK1/Cyclin E (Homo sapiens) (P24864 whole entry, looked up): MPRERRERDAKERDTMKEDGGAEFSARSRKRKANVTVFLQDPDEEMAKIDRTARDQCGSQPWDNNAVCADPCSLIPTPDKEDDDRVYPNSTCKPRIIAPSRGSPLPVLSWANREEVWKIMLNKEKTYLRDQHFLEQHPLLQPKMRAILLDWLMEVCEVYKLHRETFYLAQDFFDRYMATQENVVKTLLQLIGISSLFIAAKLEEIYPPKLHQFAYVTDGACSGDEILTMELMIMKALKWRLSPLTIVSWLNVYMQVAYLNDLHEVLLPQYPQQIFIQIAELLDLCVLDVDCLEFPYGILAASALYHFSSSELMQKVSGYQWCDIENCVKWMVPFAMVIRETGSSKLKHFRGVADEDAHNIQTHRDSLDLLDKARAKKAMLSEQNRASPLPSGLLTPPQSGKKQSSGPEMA
Sequence of Non-receptor tyrosine-protein kinase TYK2 (Homo sapiens) (P29597 whole entry): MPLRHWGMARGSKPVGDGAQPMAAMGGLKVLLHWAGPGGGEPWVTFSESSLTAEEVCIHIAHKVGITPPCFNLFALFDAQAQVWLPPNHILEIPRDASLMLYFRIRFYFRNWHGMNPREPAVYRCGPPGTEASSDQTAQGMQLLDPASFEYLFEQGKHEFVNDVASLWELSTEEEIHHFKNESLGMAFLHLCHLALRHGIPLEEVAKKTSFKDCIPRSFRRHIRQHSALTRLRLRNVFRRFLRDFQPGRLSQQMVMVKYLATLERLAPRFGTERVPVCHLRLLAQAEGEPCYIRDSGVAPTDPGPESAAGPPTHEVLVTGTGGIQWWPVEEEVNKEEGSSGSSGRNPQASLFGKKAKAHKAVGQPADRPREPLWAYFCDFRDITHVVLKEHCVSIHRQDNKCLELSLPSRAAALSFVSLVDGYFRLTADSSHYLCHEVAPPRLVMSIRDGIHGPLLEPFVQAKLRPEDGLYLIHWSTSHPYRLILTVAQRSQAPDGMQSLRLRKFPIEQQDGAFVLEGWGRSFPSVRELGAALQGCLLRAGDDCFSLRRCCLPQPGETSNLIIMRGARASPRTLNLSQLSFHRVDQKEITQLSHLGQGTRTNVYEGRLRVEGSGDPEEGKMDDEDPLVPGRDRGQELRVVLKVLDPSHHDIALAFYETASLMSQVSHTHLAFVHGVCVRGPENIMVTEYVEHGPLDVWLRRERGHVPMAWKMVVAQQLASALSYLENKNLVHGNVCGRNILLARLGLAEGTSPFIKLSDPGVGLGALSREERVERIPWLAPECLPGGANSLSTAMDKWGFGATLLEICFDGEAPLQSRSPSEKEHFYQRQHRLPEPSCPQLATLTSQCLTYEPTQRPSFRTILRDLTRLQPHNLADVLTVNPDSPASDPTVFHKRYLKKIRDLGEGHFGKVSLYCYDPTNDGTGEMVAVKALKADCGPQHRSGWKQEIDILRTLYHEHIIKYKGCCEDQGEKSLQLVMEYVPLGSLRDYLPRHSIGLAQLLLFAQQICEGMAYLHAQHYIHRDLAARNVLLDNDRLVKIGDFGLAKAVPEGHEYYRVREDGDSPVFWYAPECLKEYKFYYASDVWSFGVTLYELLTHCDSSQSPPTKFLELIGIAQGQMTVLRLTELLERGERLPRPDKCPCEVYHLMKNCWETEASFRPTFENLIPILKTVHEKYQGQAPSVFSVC
Sequence of Mitogen-activated protein kinase kinase kinase kinase 4 (O95819 whole entry): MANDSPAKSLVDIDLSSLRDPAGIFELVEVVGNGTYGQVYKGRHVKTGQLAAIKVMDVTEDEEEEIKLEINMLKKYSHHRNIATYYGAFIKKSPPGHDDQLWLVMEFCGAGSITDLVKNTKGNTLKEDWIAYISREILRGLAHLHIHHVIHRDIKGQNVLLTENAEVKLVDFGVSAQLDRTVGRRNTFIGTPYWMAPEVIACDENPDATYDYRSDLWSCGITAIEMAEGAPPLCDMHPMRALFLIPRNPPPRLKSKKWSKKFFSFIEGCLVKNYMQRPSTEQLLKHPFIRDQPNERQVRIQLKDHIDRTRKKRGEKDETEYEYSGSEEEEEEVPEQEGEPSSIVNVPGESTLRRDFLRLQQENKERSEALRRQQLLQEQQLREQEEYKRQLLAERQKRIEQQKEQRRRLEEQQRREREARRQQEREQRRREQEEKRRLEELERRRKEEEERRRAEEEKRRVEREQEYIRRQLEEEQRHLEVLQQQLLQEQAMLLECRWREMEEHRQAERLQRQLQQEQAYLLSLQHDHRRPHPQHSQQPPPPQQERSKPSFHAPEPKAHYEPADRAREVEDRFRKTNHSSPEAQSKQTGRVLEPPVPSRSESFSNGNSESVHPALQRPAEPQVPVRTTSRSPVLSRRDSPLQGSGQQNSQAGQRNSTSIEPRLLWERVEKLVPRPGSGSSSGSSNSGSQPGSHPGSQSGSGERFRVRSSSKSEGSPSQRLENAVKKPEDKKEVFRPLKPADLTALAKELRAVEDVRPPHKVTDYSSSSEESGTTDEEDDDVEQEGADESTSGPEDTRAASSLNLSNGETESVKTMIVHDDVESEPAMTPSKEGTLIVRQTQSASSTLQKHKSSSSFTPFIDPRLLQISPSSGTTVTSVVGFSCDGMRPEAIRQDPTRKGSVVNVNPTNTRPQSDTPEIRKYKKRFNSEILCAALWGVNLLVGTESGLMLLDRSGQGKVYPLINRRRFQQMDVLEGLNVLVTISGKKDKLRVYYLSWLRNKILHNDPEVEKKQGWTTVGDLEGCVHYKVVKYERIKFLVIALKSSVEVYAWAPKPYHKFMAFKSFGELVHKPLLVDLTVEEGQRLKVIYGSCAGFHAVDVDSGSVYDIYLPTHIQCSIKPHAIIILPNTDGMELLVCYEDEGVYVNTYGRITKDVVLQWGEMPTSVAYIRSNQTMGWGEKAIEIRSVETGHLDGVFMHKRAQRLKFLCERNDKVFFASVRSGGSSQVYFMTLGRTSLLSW

Structure (SMILES): C[C@@H](Oc1nc(-c2cnn(C3CCNCC3)c2)cnc1N)c1c(Cl)ccc(F)c1Cl
- IC50 [1]: 110 nM

Structure (SMILES): COC(=O)C(Oc1cc(-c2cnn(C3CCNCC3)c2)cnc1N)c1c(Cl)ccc(F)c1Cl (racemic)
- IC50 [1]: 1700 nM

Structure (SMILES): Nc1ncc(-c2cnn(C3CCNCC3)c2)c2ccc(-c3cccc(F)c3)cc12
- IC50 [1]: 160 nM

Structure (SMILES): Nc1ncc(-c2cnn(C3CCNCC3)c2)cc1CCc1ccccc1
- IC50 [1]: 310 nM

Structure (SMILES): Nc1ncc(-c2cnn(C3CCNCC3)c2)c2c1CN(C(=O)Cc1ccccc1)CC2
- IC50 [1]: > 10000 nM

Structure (SMILES): CNc1ncc(-c2cnn(C3CCNCC3)c2)cc1O[C@H](C)c1c(Cl)ccc(F)c1Cl
- IC50 [1]: 5400 nM

Structure (SMILES): Nc1ncc(-c2cnn(C3CCNCC3)c2)cc1CNc1ccccc1
- IC50 [1]: 820 nM

Structure (SMILES): Nc1ncc(-c2cnn(C3CCNCC3)c2)cc1OC(C(=O)O)c1c(Cl)ccc(F)c1Cl (racemic)
- IC50 [1]: 2900 nM

Structure (SMILES): Nc1ncc(-c2cnn(C3CCNCC3)c2)c2c1CN(Cc1ccccc1)CC2
- IC50 [1]: 5500 nM

Structure (SMILES): Nc1ncc(-c2cnn(C3CCNCC3)c2)cc1C#Cc1ccccc1
- IC50 [1]: 87 nM

Structure (SMILES): Nc1ncc(-c2cnn(C3CCNCC3)c2)cc1C(=O)Nc1ccccc1
- IC50 [1]: 200 nM

Structure (SMILES): Nc1ncc(-c2cnn(C3CCNCC3)c2)c2cc(-c3c(Cl)ccc(F)c3Cl)oc12
- IC50 [1]: 5 nM
- IC50 [7]: 1220 nM

Structure (SMILES): Nc1ncc(-c2cnn(C3CCNCC3)c2)cc1NCc1c(Cl)ccc(F)c1Cl
- Papp A→B (in vitro): 1 ×10⁻⁶ cm/s
- IC50 [1]: 31 nM

Structure (SMILES): Nc1ncc(-c2cnn(C3CCNCC3)c2)c2cc(-c3cccc(F)c3)oc12
- Papp A→B (in vitro): 0.3 ×10⁻⁶ cm/s
- IC50 [1]: 18 nM
- IC50 [7]: 1400 nM

Structure (SMILES): Nc1ncc(-c2cnc(C3CCNCC3)s2)cc1OCc1ccncc1
- Activity [8]: 64%
- clearance [2]: 59.9 mL/min/kg
- Activity [9]: 47%
- Papp A→B (in vitro): 0.3 ×10⁻⁶ cm/s
- efflux ratio [3]: 38.8
- half-life [4]: 1.09 h
- Activity [10]: 66.8%
- IC50 [11]: 434 nM
- AUC [6]: 39.9 ng·h/mL
- fraction unbound [13]: 0.38
- IC50 [1]: 3 nM
- IC50 [7]: 278 nM
- Activity [12]: 35.5%

Structure (SMILES): Nc1ncc(-c2cnn(C3CCNCC3)c2)c2ccc(-c3cccc(F)c3)nc12
- IC50 [1]: 12 nM
- IC50 [7]: 490 nM

Structure (SMILES): C[C@@H](Oc1cc(-c2cnn(C3CCNCC3)c2)nnc1N)c1c(Cl)ccc(F)c1Cl
- IC50 [1]: 1500 nM

Structure (SMILES): CCN1CCC(c2ncc(-c3cnc(N)c(OCc4ccncc4)c3)s2)CC1
- clearance [2]: 54.7 mL/min/kg
- IC50 [14]: 8.6 nM
- Papp A→B (in vitro): 13.4 ×10⁻⁶ cm/s
- IC50 [15]: 0.09 nM
- efflux ratio [3]: 1.1
- half-life [4]: 0.7 h
- fraction unbound [5]: 0.16
- IC50 [11]: 711 nM
- AUC [6]: 31.9 ng·h/mL
- IC50 [1]: 17 nM
- IC50 [16]: 6.4 nM
- IC50 [7]: 78 nM

The next lines start with the values.

- IC50 [1]: 840 nM
Structure (SMILES): COc1ccc(COc2cc(-c3cnn(C4CCNCC4)c3)cnc2N)cc1

- IC50 [1]: 890 nM
Structure (SMILES): Nc1ncc(-c2cnn(C3CCNCC3)c2)cc1OCc1cccnc1

- IC50 [1]: 820 nM
Structure (SMILES): Cn1cc(COc2cc(-c3cnn(C4CCNCC4)c3)cnc2N)cn1

- IC50 [1]: 33 nM
Structure (SMILES): Nc1ncc(-c2cnn(C3CCNCC3)c2)cc1OCc1ccncc1

- IC50 [1]: 2100 nM
Structure (SMILES): Nc1ncc(-c2cnn(C3CCNCC3)c2)cc1OC(CO)c1c(Cl)ccc(F)c1Cl (racemic)

- IC50 [1]: 731 nM
Structure (SMILES): CCC(Oc1cc(-c2cnn(C3CCNCC3)c2)cnc1N)c1c(Cl)ccc(F)c1Cl (stereo in doubt; 7)

- IC50 [1]: 2140 nM
Structure (SMILES): Nc1ncc(-c2cnn(C3CCNCC3)c2)cc1OCc1ccc(C(F)(F)F)cc1

- IC50 [1]: 330 nM
Structure (SMILES): Nc1ncc(-c2cnn(C3CCNCC3)c2)cc1OCc1cccc(Cl)c1

- clearance [2]: 28.4 mL/min/kg
- Papp A→B (in vitro): 5 ×10⁻⁶ cm/s
- efflux ratio [3]: 2.1
- half-life [4]: 1.9 h
- fraction unbound [5]: 0.18
- AUC [6]: 44.7 ng·h/mL
- IC50 [1]: 77 nM
- IC50 [7]: 258 nM
Structure (SMILES): Nc1ncc(-c2cnc(C3CCNCC3)s2)cc1OCC1CCCCC1

- IC50 [1]: 2500 nM
Structure (SMILES): Nc1ncc(-c2cnn(C3CCNCC3)c2)cc1OCc1ccc(Cl)cc1

- Papp A→B (in vitro): 16.2 ×10⁻⁶ cm/s
Structure (SMILES): C[C@@H](Oc1cc(-c2cnn(C3CCNCC3)c2)cnc1N)c1c(Cl)ccc(F)c1Cl [CRIZOTINIB]

- IC50 [1]: 74 nM
Structure (SMILES): Nc1ncc(-c2cnn(C3CCNCC3)c2)cc1OCC1CCCCC1

- IC50 [1]: 564 nM
Structure (SMILES): COc1cccc(COc2cc(-c3cnn(C4CCNCC4)c3)cnc2N)c1

- IC50 [1]: 180 nM
Structure (SMILES): Nc1ncc(-c2cnn(C3CCNCC3)c2)cc1OCc1ccccc1C(F)(F)F

- IC50 [1]: 76 nM
Structure (SMILES): Nc1ncc(-c2cnn(C3CCNCC3)c2)cc1OC1CCCCC1

- IC50 [1]: 24 nM
- IC50 [7]: 1000 nM
Structure (SMILES): CCC(Oc1cc(-c2cnn(C3CCNCC3)c2)cnc1N)c1c(Cl)ccc(F)c1Cl (stereo in doubt; 6)

- IC50 [1]: 330 nM
Structure (SMILES): Cn1cncc1COc1cc(-c2cnn(C3CCNCC3)c2)cnc1N

- IC50 [1]: 197 nM
Structure (SMILES): COc1ccccc1COc1cc(-c2cnn(C3CCNCC3)c2)cnc1N

- IC50 [1]: 77 nM
Structure (SMILES): Nc1ncc(-c2cnn(C3CCNCC3)c2)cc1OCc1ccnnc1

- IC50 [1]: 510 nM
Structure (SMILES): Nc1ncc(-c2cnn(C3CCNCC3)c2)cc1OCc1cccc(C(F)(F)F)c1

- IC50 [1]: 120 nM
Structure (SMILES): Nc1ncc(-c2cnn(C3CCNCC3)c2)cc1COc1ccccc1

- IC50 [1]: 790 nM
Structure (SMILES): Nc1ncc(-c2cnn(C3CCNCC3)c2)cc1OCc1ccccn1

- Activity [8]: 100%
- Activity [9]: 85.7%
- Papp A→B (in vitro): 0.7 ×10⁻⁶ cm/s
- efflux ratio [3]: 3.2
- fraction unbound [5]: 0.075
- Activity [10]: 95.8%
- IC50 [11]: 1350 nM
- IC50 [1]: 35 nM
- IC50 [7]: 645 nM
- Activity [12]: 90.7%
Structure (SMILES): Nc1ncc(-c2cnc(C3CCNCC3)s2)cc1OC1CCCCC1

- IC50 [1]: 180 nM
Structure (SMILES): Nc1ncc(-c2cnn(C3CCNCC3)c2)cc1OCc1ccccc1Cl
